Measurements taken from patent publication US20200215009A1, “Optimized Solution for the Treatment of Alzheimer's, Stroke, Cardiovascular and other Amyloid Related Diseases” (priority 2017, published 2020).

Tests used:
[1] = molecular target: T1, L68Q cystatin C (Homo sapiens, UniProt P01034, L94Q); test: Preliminary trial of N-acetylcysteine in HCCAA patients expressing L68Q cystatin C, monitored by biopsy; format: in vivo
T1 construct: confirmed by genetic screen to express L68Q cystatin C; from tissue; host or cells: HCCAA patients; plaques and aggregated protein observed on biopsy
T1 sequence (P01034 27-146 L94Q): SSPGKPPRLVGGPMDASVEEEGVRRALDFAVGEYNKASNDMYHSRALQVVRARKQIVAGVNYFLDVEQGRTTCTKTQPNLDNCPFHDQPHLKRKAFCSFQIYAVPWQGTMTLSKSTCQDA
Source text: Three persons who had been identified through characteristic HCCAA symptoms confirmed by genetic screen to express L68Q cystatin C agreed to participate in a preliminary trial with a prototype drug to support antioxidant and other effects of GSH. N-acetylcysteine was used as a GSH-support/anti-cystatin-C-polymerization archetypical drug for conceptual proof and support of the hypotheses supporting this invention. […] One patient fully complied with the prescribed protocol. Two patients were only partially compliant. The fully compliant patient presented with a 50% reduction in plaques observed on biopsy.
Treatments are continuing, augmented by confirmatory/advisory biopsies. Biopsy intervals may be approximately weekly, but longer intervals are envisioned as sufficient to monitor effects and dosages and to encourage compliance in testing and treatment maintenance. For example, biopsy intervals may be weekly, biweekly, monthly, bimonthly, quarterly, semi-annual, annual, etc. Biopsy appointments may be used both for treatment/disease monitoring, but also to maintain patient attention and interaction. Medical advisory panels and insurance issues may also be considered in determining the frequency and type(s) of biopsies.

[2] = system: cellular glutathione; details: dose of about 22-65 mg/kg; cited from earlier work

SMILES | disease arrest ([1]; all three HCCAA patients (one fully compliant, two partially compliant)) | reduction in plaques observed on biopsy ([1]; fully compliant patient) [%] | reduction of aggregated protein previously observed ([1]; one of the two partially compliant patients) | change in cellular glutathione shortly after administration [2] | duration of effect, waning in plasma post administration [2] [h]
CC(=O)N[C@@H](CS)C(=O)O [N-acetylcysteine] | disease arrest | 50 | significant reduction |  | 
O=C1N[C@H](C(=O)O)CS1 [OTC, L-2-oxothiazolidine-4-carboxolate] |  |  |  | double | ≤ 8
